Earlier results, collected in article PMC7876056, “Population Pharmacokinetic Analysis of Yimitasvir in Chinese Healthy Volunteers and Patients With Chronic Hepatitis C Virus Infection” (Frontiers in Pharmacology, 2021).
Where two headings read alike, the source gives them in different places.

Conditions: cited from earlier work; for Time-varying ALT as covariate on PK: healthy volunteers and HCV patients
[1] = ref U.S. Food and Drug Administration, 2014
[2] = ref U.S. Food and Drug Administration, 2016

## COC(=O)N[C@H](C(=O)N1CCC[C@H]1c1nc(-c2ccc(-c3ccc(-c4c[nH]c([C@@H]5CCCN5C(=O)[C@@H](NC(=O)OC)C(C)C)n4)cc3)cc2)c[nH]1)C(C)C [daclatasvir]
Patient population only, ref Chan et al., 2017
  Time-varying ALT as covariate on CL/F: significant covariate
Ref Chan et al., 2017
  Effect of time-varying ALT on AUCss: small
  Gender effect on CL/F: lower CL/F values in females

## COC(=O)N[C@H](C(=O)N1CC2(CC2)C[C@H]1c1ncc(-c2ccc3c(c2)C(F)(F)c2cc(-c4ccc5nc([C@@H]6[C@H]7CC[C@H](C7)N6C(=O)[C@@H](NC(=O)OC)C(C)C)[nH]c5c4)ccc2-3)[nH]1)C(C)C [ledipasvir]
[1]
  Time-varying ALT as covariate on PK: not identified as a significant covariate
  Gender effect on CL/F: lower CL/F values in females
Ref German et al., 2016
  Effect of co-medication of sofosbuvir on PK profile: not affected by co-medication of sofosbuvir

## COC[C@H]1C[C@@H](c2ncc(-c3ccc4c(c3)COc3cc5c(ccc6nc([C@@H]7CC[C@H](C)N7C(=O)[C@@H](NC(=O)OC)C(C)C)[nH]c65)cc3-4)[nH]2)N(C(=O)[C@H](NC(=O)OC)c2ccccc2)C1 [velpatasvir]
[2]
  Time-varying ALT as covariate on PK: not identified as a significant covariate
  Gender effect on CL/F: lower CL/F values in females
Ref Brieva et al., 2017
  Effect of co-medication of sofosbuvir on PK profile: not affected by co-medication of sofosbuvir
